Entries after “also recorded” stand apart in the source; their conditions may differ. Read-outs that look alike come from different tables or passages of the source.
Key:
T cells [1] = test: Flow cytometry staining of Day 6 cells for expression of the transduced TCR (PRAME dextramer); assay type: cell-based, human
Method: Flow cytometry staining was performed on Day 6 cells to assess the expression of TCR.

T cells [2] = system: T cells
Method: On Day 3, cells were fed with media containing IL-7 and IL-15. On Day 6, cells were harvested and about half of cells were cryopreserved. The other half of cells were transferred to G-Rex 6-well plate, to which 10 ml of fresh medium was added without RA (Group 1) or with RA (100 nM/ml) (Group 2). Some Day 6 cells were analysed by flow cytometry to assess transduction efficiency. On Day 8, remaining cells were harvested and cryopreserved.

[3] = Day 6 or Day 8 cells untreated or treated with RA, data not shown
[4] = Day 6 or Day 8 cells, Wilcoxon test
[5] = Day 6 or Day 8 cells, data not shown
[6] = RA-treated Day 6 T cell products
[7] = RA-treated Day 8 T cell products

## CC1=C(/C=C/C(C)=C/C=C/C(C)=C/C(=O)O)C(C)(C)CCC1 [RA, all-trans-retinoic acid]
T cells [1]; Donor 1
  % CD3+ of live lymphocytes, with vs without RA: comparable
  % CD8+ of live CD3+ cell, with vs without RA: comparable
T cells [1]; Donor 1, with RA treatment (ATRA 100 nM/ml)
  % of CD8+ cells expressing the transduced TCR: 32.9%
T cells [1]; Donor 2
  % CD3+ of live lymphocytes, with vs without RA: comparable
  % CD8+ of live CD3+ cell, with vs without RA: comparable
T cells [1]; Donor 2, with RA treatment (ATRA 100 nM/ml)
  % of CD8+ cells expressing the transduced TCR: 13.3%
T cells [2]
  CD38 expression on RA-treated CD8+ T cells: expressed on all RA-treated CD8+ T cells
  RA-treated CD103+ cells that also express CCR9: almost all
T cells [2]; 1-way ANOVA on 3 data sets
  effect of RA treatment on CD45RA+ CD3+CD8+ T cells: significantly decreases
  effect of RA treatment on transitional CD3+CD8+ T cells: significantly decreases
T cells [2]; 1-way ANOVA on 3 data sets, CD3+CD8+ T cells
  effect of RA treatment on CD45RO+ T cells: significantly increases
T cells [2]; Day 6 or Day 8 T cell products, Paired t-test
  CD25+ cells, with vs without RA treatment: does not impact; also recorded: no significant difference
T cells [2]; Day 6 or Day 8 cells
  CD73, untreated or treated with RA: no difference was observed between Day 6 or Day 8 cells
  CD95, untreated or treated with RA: no difference was observed between Day 6 or Day 8 cells
T cells [2]; [3]
  CD73 positive cells: untreated or treated with RA (<5% positive, data not shown)
  CD95 positive cells: untreated or treated with RA (>90% positive, data not shown)
T cells [2]; [4]
  CD27+ cells, treated vs untreated: no significant difference; also recorded: No difference was seen between treated and untreated and
  CD28+ cells, treated vs untreated: no significant difference; also recorded: No difference was seen between treated and untreated and
  CD39+ cells, untreated or treated with RA: no significant difference; also recorded: no difference was observed between Day 6 or Day 8 cells
  CXCR4+ cells, untreated or treated with RA: no significant difference; also recorded: no difference was observed between Day 6 or Day 8 cells
  HLA-DR+ cells, untreated or treated with RA: no significant difference; also recorded: no difference was observed between Day 6 or Day 8 cells
T cells [2]; [5]
  CD56 (NK-related marker), treated vs untreated: No difference was seen between treated and untreated and
  CD94 (NK-related marker), treated vs untreated: No difference was seen between treated and untreated and
  CD314 (NK-related marker), treated vs untreated: No difference was seen between treated and untreated and
T cells [2]; FIG. 10
  effect of RA treatment on Tcm: increases
  effect of RA treatment on Tem: little effect
  effect of RA treatment on Temra: little effect
  effect of RA treatment on naïve/Tscm: significantly decreases
T cells [2]; FIG. 19B
  CD103 expression, with vs without RA treatment: does not significantly affect
T cells [2]; [6]
  CD45RO+ T cells: 80.3%
  CD62L+ T cells: 7.74%
  naïve/Tscm (CD45RA+CD197+): 6.07%
T cells [2]; [7]
  CD45RO+ T cells: 84.5%
  CD62L+ T cells vs without RA treatment: significantly fewer
  naïve/Tscm (CD45RA+CD197+): 4.25%
T cells [2]; Wilcoxon test, p=0.0313
  CCR9+ cells, with vs without RA treatment: significantly increases
  CD25+ cells, Day 8 RA-treated vs Day 6 T cell products without RA treatment: significantly fewer
  CD38+ cells, with vs without RA treatment: significantly increases
  CD38 MFI (Mean Fluorescence Intensity) in CD8+ T cells vs without RA treatment: higher
  CD49a+ cells, with vs without RA treatment: significantly increases
  CD69+ cells, with vs without RA treatment: significantly increases
  ICOS+ cells, with vs without RA treatment: lower levels; also recorded: significantly decreases
T cells [2]; Wilcoxon test, p=0.0313, α4+ and β7+ detected separately
  α4β7+ cells, with vs without RA treatment: significantly increases
T cells [2]; between Day 6 and Day 8 T cell products with or without RA treatment
  CD197+ cells: no significant difference
T cells [2]; data not shown
  CCR6, effect of RA treatment: to low frequency and no differences (data not shown)
T cells [2]; p=0.0313
  expression of CCR9 on DEX+CD3+CD8+α4β7+ cells vs without RA treatment: significantly higher
  α4β7 expression in CD3+CD8+DEX+ cells vs without RA treatment: significantly higher
T cells [2]; with RA treatment, CD49d (α4) and β7
  α4β7+ cells present in CD3+CD8+DEX+ cells: 54.6%

From patent US20210017492A1, “USE OF RETINOIC ACID IN T-CELL MANUFACTURING” (Immatics US, Inc., priority 2019, published 2021)
